For 9 compounds, IC50 results are on record in ChEMBL document CHEMBL3734738, “A structure-activity relationship of non-peptide macrocyclic histone deacetylase inhibitors and their anti-proliferative and anti-inflammatory activities” (Bioorg Med Chem, 2015).

The target in one experiment is Histone deacetylase 1 (Homo sapiens, UniProt Q13547). Briefly: Inhibition of recombinant HDAC1 (unknown origin) expressed in Escherichia coli BL21(DE3) after 60 mins using trichostatin A by label-free mass spectrometry-based SAMDI assay.
Chain of Histone deacetylase 1 (Q13547 whole entry): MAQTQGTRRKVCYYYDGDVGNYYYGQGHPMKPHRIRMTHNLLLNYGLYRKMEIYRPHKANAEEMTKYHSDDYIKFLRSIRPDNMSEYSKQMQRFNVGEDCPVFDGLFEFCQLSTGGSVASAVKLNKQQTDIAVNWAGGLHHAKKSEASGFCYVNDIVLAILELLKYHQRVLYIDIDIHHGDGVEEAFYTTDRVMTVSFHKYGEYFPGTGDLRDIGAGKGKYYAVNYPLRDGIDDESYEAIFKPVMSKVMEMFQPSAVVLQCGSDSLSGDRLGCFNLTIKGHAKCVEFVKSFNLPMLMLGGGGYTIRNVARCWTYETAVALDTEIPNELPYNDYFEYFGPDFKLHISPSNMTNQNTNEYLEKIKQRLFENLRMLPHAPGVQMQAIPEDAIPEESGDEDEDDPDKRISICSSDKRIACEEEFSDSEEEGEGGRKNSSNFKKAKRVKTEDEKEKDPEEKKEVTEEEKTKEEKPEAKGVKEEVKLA
For experiment [1], the target named is T1, Protein deacetylase HDAC6 (Homo sapiens, UniProt Q9UBN7).
T1 sequence (Q9UBN7 whole entry): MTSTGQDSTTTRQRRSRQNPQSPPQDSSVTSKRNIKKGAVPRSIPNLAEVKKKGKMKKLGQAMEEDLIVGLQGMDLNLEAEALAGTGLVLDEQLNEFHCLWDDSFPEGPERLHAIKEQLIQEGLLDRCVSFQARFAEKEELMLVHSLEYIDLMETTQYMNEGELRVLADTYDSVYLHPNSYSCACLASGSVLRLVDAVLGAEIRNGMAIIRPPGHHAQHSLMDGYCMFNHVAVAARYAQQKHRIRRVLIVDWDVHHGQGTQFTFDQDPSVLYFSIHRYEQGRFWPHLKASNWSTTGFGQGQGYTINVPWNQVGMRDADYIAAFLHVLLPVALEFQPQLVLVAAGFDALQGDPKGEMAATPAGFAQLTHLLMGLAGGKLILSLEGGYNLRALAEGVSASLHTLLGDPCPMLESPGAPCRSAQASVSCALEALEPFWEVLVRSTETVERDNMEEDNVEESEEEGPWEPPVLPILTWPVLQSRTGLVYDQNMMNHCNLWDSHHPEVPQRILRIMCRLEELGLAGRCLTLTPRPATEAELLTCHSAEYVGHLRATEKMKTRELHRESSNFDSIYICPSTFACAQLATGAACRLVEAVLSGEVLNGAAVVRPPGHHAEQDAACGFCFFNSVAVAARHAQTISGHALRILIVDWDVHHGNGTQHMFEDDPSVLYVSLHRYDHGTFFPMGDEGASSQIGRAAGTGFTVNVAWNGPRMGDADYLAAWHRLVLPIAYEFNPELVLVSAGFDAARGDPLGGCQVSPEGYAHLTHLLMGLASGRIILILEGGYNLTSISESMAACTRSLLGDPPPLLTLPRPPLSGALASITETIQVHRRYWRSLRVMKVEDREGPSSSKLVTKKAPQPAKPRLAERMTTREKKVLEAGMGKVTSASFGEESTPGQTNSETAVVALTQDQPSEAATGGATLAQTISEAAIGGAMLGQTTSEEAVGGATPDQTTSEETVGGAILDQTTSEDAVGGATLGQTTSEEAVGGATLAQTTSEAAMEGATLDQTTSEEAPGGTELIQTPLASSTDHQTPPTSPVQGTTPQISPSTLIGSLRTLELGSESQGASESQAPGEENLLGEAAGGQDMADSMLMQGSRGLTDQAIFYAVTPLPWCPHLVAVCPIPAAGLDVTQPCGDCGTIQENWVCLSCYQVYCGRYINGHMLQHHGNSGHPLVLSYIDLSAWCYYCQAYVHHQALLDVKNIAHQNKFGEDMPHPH
Briefly: Inhibition of recombinant HDAC6 (unknown origin) expressed in Escherichia coli BL21(DE3) after 60 mins using trichostatin A by label-free mass spectrometry-based SAMDI assay.

The next experiment concerns the target T2, Histone deacetylase 8 (Homo sapiens, UniProt Q9BY41).
T2 sequence (Q9BY41 whole entry): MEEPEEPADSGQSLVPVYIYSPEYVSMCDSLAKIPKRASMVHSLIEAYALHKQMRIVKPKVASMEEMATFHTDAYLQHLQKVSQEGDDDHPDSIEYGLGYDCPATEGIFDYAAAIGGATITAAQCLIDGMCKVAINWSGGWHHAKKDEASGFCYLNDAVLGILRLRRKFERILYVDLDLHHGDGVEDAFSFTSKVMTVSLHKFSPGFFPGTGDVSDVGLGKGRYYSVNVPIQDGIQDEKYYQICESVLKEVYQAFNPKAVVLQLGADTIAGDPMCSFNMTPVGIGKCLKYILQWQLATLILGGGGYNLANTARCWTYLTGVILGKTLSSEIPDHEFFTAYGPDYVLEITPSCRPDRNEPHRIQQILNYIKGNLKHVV
Briefly: Inhibition of recombinant HDAC8 (unknown origin) expressed in Escherichia coli BL21(DE3) after 60 mins using trichostatin A by label-free mass spectrometry-based SAMDI assay.

pIC50: −log10 of the molar value. A value given as a limit tells only on which side of the number the result lay.

On to `CC[C@@H]1OC(=O)[C@@H](C)[C@H](O[C@@H]2C[C@](C)(OC)[C@@](O)(CN(C)C)[C@@H](C)O2)[C@H](C)[C@H](O[C@@H]2O[C@H](C)C[C@H](N(C)Cc3ccc(-c4cn(CCCCCC(=O)NO)nn4)cc3)[C@H]2O)[C@@](C)(OC)C[C@H](C)C(=O)[C@@H](C)[C@@H](O)[C@@]1(C)O`, for which the pIC50 (in general, −log10 of the IC50, conventionally taken in molar units) is 6.70 on Histone deacetylase 1, 7.48 in experiment [1] and 5.49 on Histone deacetylase 8.
In the same order, the values of `CC[C@H]1OC(=O)[C@H](C)C(=O)[C@H](C)[C@@H](O[C@@H]2O[C@H](C)C[C@H](N(C)Cc3ccc(-c4cn(CC(=O)NO)nn4)cc3)[C@H]2O)[C@@](C)(OC)C[C@@H](C)C2=NCCN3C(=O)O[C@@]1(C)[C@H]3[C@H]2C` are below 5.00, below 5.00 and 5.55.
The like results for `CC[C@H]1OC(=O)[C@H](C)[C@@H](O[C@@H]2C[C@](C)(OC)[C@H](O)[C@@H](C)O2)[C@@H](C)[C@@H](O[C@H]2O[C@@H](C)C[C@@H](N(C)Cc3ccc(-c4cn(CCCC(=O)NO)nn4)cc3)[C@@H]2O)[C@](C)(OC)C[C@@H](C)C(=O)[C@H](C)[C@H](O)[C@]1(C)O` were, in that order, 5.00, 7.15 and 6.01.
In the case of `CC[C@@H]1OC(=O)[C@@H](C)[C@H](O[C@H]2C[C@@](C)(OC)[C@@H](O)[C@H](C)O2)[C@H](C)[C@H](O[C@@H]2O[C@H](C)C[C@H](N(C)Cc3ccc(-c4cn(CC(=O)NO)nn4)cc3)[C@H]2O)[C@@](C)(OC)C[C@H](C)C(=O)[C@@H](C)[C@@H](O)[C@@]1(C)O`, the pIC50 (on Histone deacetylase 1; in experiment [1]; at Histone deacetylase 8) was below 5.00 throughout.
On to `CC[C@H]1OC(=O)[C@@H](C)[C@H](O[C@H]2C[C@@](C)(OC)[C@@H](O)[C@H](C)O2)[C@H](C)[C@H](O[C@H]2O[C@@H](C)C[C@@H](N(C)Cc3ccc(-c4cn(CC(=O)NO)nn4)cc3)[C@@H]2O)[C@@](C)(O)C[C@H](C)CN(C)[C@@H](C)[C@H](O)[C@@]1(C)O`, for which the negative logarithm of the IC50 (pIC50) on Histone deacetylase 1 is below 5.00; in experiment [1], 5.25; on Histone deacetylase 8 it was below 5.00.
`CC[C@H]1OC(=O)[C@H](C)[C@@H](O[C@@H]2C[C@](C)(OC)[C@H](O)[C@@H](C)O2)[C@H](C)[C@@H](O[C@@H]2O[C@H](C)C[C@H](N(C)C)[C@H]2O)[C@@](C)(O)C[C@@H](C)CN(Cc2ccc(-c3cn(CCCC(=O)NO)nn3)cc2)[C@@H](C)[C@@H](O)[C@]1(C)O`: the negative logarithm of the IC50 (pIC50) on Histone deacetylase 1 is below 5.00; in experiment [1], 6.21; at Histone deacetylase 8 it was 5.56.
Consider `CC[C@H]1OC(=O)[C@@H](C)[C@H](O[C@H]2C[C@@](C)(OC)[C@@H](O)[C@H](C)O2)[C@H](C)[C@H](O[C@H]2O[C@@H](C)C[C@@H](N(C)Cc3ccc(-c4cn(CCC(=O)NO)nn4)cc3)[C@@H]2O)[C@@](C)(O)C[C@H](C)CN(C)[C@@H](C)[C@H](O)[C@@]1(C)O`, for which the pIC50 on Histone deacetylase 1 was below 5.00; in experiment [1], 5.66; at Histone deacetylase 8 it was below 5.00.
As to `CC[C@H]1OC(=O)[C@H](C)C(=O)[C@H](C)[C@@H](O[C@@H]2O[C@H](C)C[C@H](N(C)Cc3ccc(-c4cn(CCC(=O)NO)nn4)cc3)[C@H]2O)[C@@](C)(OC)C[C@@H](C)C2=NCCN3C(=O)O[C@@]1(C)[C@H]3[C@H]2C`, the pIC50 is below 5.00 on Histone deacetylase 1, 5.76 in experiment [1] and below 5.00 on Histone deacetylase 8.
On to `CC[C@H]1OC(=O)[C@H](C)[C@@H](O[C@@H]2C[C@](C)(OC)[C@H](O)[C@@H](C)O2)[C@H](C)[C@@H](O[C@@H]2O[C@H](C)C[C@H](N(C)C)[C@H]2O)[C@@](C)(O)C[C@@H](C)CN(Cc2ccc(-c3cn(CCCCCC(=O)NO)nn3)cc2)[C@@H](C)[C@@H](O)[C@]1(C)O`, for which the negative-log IC50 (pIC50) at Histone deacetylase 1 is 6.84; in experiment [1], 7.99; at Histone deacetylase 8 it was 5.63.
